This assay concerns the target Egl nine homolog 1 (Homo sapiens, UniProt Q9GZT9). Kind of assay: In Vitro Inhibition Assay: In vitro tests for determination of the activity and selectivity of HIF prolyl 4-hydroxylase inhibitors. Hydroxylated HIF bonds specifically to the von Hippel-Lindau protein-elongin B-elongin C complex (VBC complex). This interaction occurs only if HIF is hydroxylated on a conserved prolyl radical. It is the basis for the biochemical determination of HIF prolyl hydroxylase activity. The test is carried out as described [Oehme F., Jonghaus W., Narouz-Ott L., Huetter J., Flamme I., Anal. Biochem. 330 (1), 74-80 (2004)].

Sequence of Egl nine homolog 1 (Q9GZT9 whole entry, looked up): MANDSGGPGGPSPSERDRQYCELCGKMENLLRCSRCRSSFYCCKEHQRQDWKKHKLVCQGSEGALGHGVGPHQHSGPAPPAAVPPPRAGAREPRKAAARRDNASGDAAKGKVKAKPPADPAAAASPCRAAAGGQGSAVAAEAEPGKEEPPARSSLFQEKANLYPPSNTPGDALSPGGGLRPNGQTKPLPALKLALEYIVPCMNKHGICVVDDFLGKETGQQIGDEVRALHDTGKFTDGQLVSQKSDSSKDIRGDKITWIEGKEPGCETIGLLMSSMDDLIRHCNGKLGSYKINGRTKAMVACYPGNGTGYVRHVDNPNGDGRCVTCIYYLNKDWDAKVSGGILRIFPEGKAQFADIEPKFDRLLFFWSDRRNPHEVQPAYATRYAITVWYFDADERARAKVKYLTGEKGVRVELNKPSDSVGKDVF

The IC50 is the point on the concentration scale where inhibition reaches its midpoint. `N#Cc1cn(-c2c[nH]n(-c3cc(N4CC(F)(F)C4)ncn3)c2=O)cn1` returned an IC50 of 90 nM.

The values are drawn from ChEMBL document CHEMBL3639310, “Substituted dihydropyrazolones and their use” (2013).
